The record followed here is patent US7799795B2, “Aryl nitrile compounds and compositions and their uses in treating inflammatory and related disorders” (Amgen Inc., priority 2005, dated 2010).

Data set [1] has as its system Human peripheral blood mononuclear cells (PBMCs). Kind of data set: I-TAC migration assay. In kind it is cell-based. To be noted: PBMC; activated human PBMCs, human ITAC, in human plasma. How it is done:
I-TAC migration assay: Human peripheral blood mononuclear cells (PBMCs) were activated with OKT3 (purified by AB solutions from hybridoma cell line OKT3 (ATCC CRL-8001)) and IL-2 (Peprotech, Inc., Rocky Hill, N.J., USA). After fourteen days, the cells were loaded with chloromethyl-fluoroscein-diacetate (CMFDA) (Molecular Probes, Inc.) by incubating the activated PBMCs in 1 ng/mL CMFDA for >1.5 hours at 37° C. in a tissue culture incubator. While cells were loading, the test compounds were diluted in DMSO to a concentration that is 100-times the intended final assay concentration. Next, 100 ng/mL of human ITAC (Peprotech) in human plasma (EDTA, drug free, Biological Specialty Corp) was prepared. Test compounds were added to the human ITAC preparation. Cells were washed once in prewarmed (37° C.) RPMI (Invitrogen) media with 0.5% BSA and resuspended to 5 million cells/ml in human plasma. The test compounds were added to the PBMCs. A 96-well chemotaxis migration plate (NeuroProbe, Inc.) was assembled by adding, per well, 30 uL of ITAC/compound mixture in the lower chamber, placing the […] membrane on top of the ITAC/compound well, and adding 50 uL of the PBMC/compound mixture to the well. The plates were covered and incubated in a humidified tissue culture incubator for 2.5 hours. A standard curve of CMFDA-loaded cells to be used as a reference for the test plates was prepared. Migration plates were disassembled and are read in a fluorometric plate reader set to 475 nm absorbance, 517 nm emission. The fluorometric reading was converted to cell number using the standard curve and calculating the percentage of migrating cells.

Data set [2] deals with T1, CXCR3 (Homo sapiens, UniProt P49682).
T1 construct: ChemoCentryx
T1 sequence (P49682 1-368): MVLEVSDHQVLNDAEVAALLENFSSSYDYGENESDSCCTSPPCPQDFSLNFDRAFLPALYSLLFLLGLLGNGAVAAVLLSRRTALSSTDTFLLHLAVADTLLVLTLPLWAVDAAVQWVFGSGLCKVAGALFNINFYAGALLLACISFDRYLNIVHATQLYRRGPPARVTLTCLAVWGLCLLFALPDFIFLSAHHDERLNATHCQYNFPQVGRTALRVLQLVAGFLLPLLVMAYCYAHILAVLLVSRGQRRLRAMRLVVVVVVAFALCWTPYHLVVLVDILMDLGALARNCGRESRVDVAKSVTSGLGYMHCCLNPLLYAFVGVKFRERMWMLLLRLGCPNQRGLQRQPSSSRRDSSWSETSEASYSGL
The data set can be described thus: CXCR3 binding assay in binding buffer (125I-labelled chemokine, CXCR3-expressing cells). The following applies: absence of human plasma. How it is done:
(§1) CXCR3 Binding Assay: CXCR3 binding assays were conducted as previously described (see, e.g., Example 12 in WO 02/083143, incorporated herein by reference in its entirety), in the absence (“binding buffer”) or presence of human plasma. Unless otherwise noted, all reagents used are available from commercial sources (e.g., Sigma-Aldrich, St. Louis, Mo., USA). Test compounds are diluted in DMSO to a concentration that is 40-times the intended final assay concentration; 5 μL are transferred to each well of a 96-well flat-bottomed polypropylene plate (e.g., from Greiner, Inc.). CXCR3-expressing cells obtained from ChemoCentryx were used in the assays to generate the data set forth below. The cells were resuspended in assay buffer (25 mM Hepes, 80 mM NaCl, 1 mM CaCl2, 5 mM MgCl2, 0.2% bovine serum albumin, pH 7.1, stored at 4° C.) at 5 million cells per mL; 100 μL of this cell suspension is then transferred to each well of a 96-well plate containing the diluted test compounds. ^125I-labelled chemokine (purchased from commercial sources, e.g., Amersham, PE Life Sciences) is diluted in assay buffer to a concentration of approximately […]; 100 μL of this chemokine solution is transferred to each well of a 96-well plate containing compounds and cell suspension. The plates are sealed with commercially available foil plate seals (e.g., from E&K Scientific), and stored at 4° C. for a period of 2 to 4 h, shaking gently. At the end of this incubation period, the contents of the assay plates are transferred to GF/B filter plates (Packard) that have been pre-coated by dipping into a solution containing 0.3% polyethyleneimine (Sigma-Aldrich), using a cell harvester (Packard), and washing twice with wash buffer (25 mM Hepes, 500 mM NaCl, 1 mM CaCl2, 5 mM MgCl2, pH 7.1, stored at room temperature). The filter plates are sealed on the bottom with plate seals (Packard), 50 μL of Microscint-20 scintillation fluid (Packard) is added to each well, and the top of the plates are sealed with clear plastic (TopSeal A, Packard). The plates are counted on a scintillation counter, such as a Packard TopCount. To measure non-specific binding, 4 wells containing unlabelled “cold” chemokine were included on each 96-well plate. To measure maximum binding, 4 wells containing 5 μL of DMSO, 100 μL of cell suspension and 100 μL of ^125I-labelled chemokine solution were included on each 96-well plate. Data were analyzed using commercially available software (e.g., Excel from Microsoft, Prism from GraphPad Software Inc.).

The target in data set [3] is T1, CXCR3. The data set can be described thus: CXCR3 binding assay in presence of human plasma. As to the method:
as §1

For data set [4], the system named is CYP3A4. Kind of data set: Time dependent CYP inhibition assay (midazolam, pooled human liver microsomes). The following applies: preincubation with NADPH, midazolam marker substrate. (Liver microsomes are a subcellular fraction often used to study metabolism.)
Description: (§3) CYP Inhibition Assay: Time dependent CYP inhibition assays were initiated by incubating a test compound in 0.1 mM phosphate buffer containing pooled human liver microsomes (1 mg/mL protein) in the presence of NADPH for 0, 15 and 30 minutes. At each time point, an aliquot of the preincubation mixture was removed and added to 0.1 mM phosphate buffer containing marker substrate (midazolam) and fresh NADPH. The residual CYP activity, after the preincubation times of 0, 15, and 30 minutes, was monitored for 5 minutes. Data are expressed as the % 1-OH midazolam formation at 15 minutes compared to that formed at 0 minutes. […] DMSO (vehicle control) caused an approximate 10% drop in CYP activity over 15 minutes.
The nature of the next data set: Rat PK PO. In kind it is in vivo. The following applies: Sprague-Dawley, plasma; for bioavailability: read-out: Rat PK PO F %. How it is done:
In Vivo Metabolic Evaluation in Rat: To study the metabolic fate of test compounds in vivo, Sprague-Dawley (SD) rats were administered (orally gavage) test compound in suspension. Blood samples (˜0.3 mL/timepoint) were collected at 1, 2, 4, 8, 24, 30 and 48 hours post-dose into EDTA containing tubes. All blood samples were collected via tail artery venipuncture under isofluorane anesthesia. Blood samples were processed for plasma by centrifugation and stored frozen until analysis (−20° to −70° C.). Samples were analyzed using a sensitive and selective LC/MS/MS method. Briefly, samples were prepared for analysis using protein precipitation. An aliquot of the resulting supernatant was subjected to LC/MS/MS analysis. Separation of the analytes from endogenous material was achieved using an reverse phase HPLC. Column effluent was monitored using a Sciex API 365 triple quadrapole mass spectrometer with a Sciex TurboIon Spray probe. Unknown concentrations of testing articles were determined using a calibration curve from 1 to 2000 ng/mL.
(§2) Pharmacokinetics of exemplary compounds of the invention was assessed in rats.

The next data set is described as follows: Rat PK (IV). To be noted: in vivo. How it is done: as §2
The test system of data set [5] is CYP3A4. To be noted: microsomes.
Description: as §3

Like-named read-outs stand apart in the source and are kept apart here.

A word on the IC50: it is the point on the concentration scale where inhibition reaches its midpoint. Regarding `CCOc1ccc(-n2c([C@@H](C)N(CCS(=O)(=O)CC)C(=O)Cc3ccc(F)c(C(F)(F)F)c3)nc3ncccc3c2=O)cc1`, the values for the IC50 (in data set [1]; at CXCR3 [2]; at CXCR3 [3]) were 22 nM, 1 nM and 7 nM, respectively.
On to `CCS(=O)(=O)CCN(C(=O)Cc1ccc(F)c(C(F)(F)F)c1)[C@H](C)c1nc2ncccc2c(=O)n1-c1ccc(O)cc1`, for which the “Time Dependent CYP3A4 Inhibition” value in the data set with CYP3A4 [4] is “Yes”.
For `CCOc1ccc(-c2c([C@@H](C)N(CCS(=O)(=O)CC)C(=O)Cc3ccc(F)c(C(F)(F)F)c3)nc3ccccn3c2=O)cc1`, the values for the IC50 (in data set [1]; on CXCR3 [2]; on CXCR3 [3]) were 183 nM, 1 nM and 57 nM, respectively.
`CCS(=O)(=O)CCN(C(=O)Cc1ccc(F)c(C(F)(F)F)c1)[C@H](C)c1nc2ccccn2c(=O)c1-c1ccc(O)cc1`: the IC50 at CXCR3 [2] came out at 816 nM; at CXCR3 [3] it was 4080 nM. Besides, the “Time Dependent CYP3A4 Inhibition” value in the data set with CYP3A4 [4] was “Yes”.
Regarding `CCS(=O)(=O)CCN(C(=O)Cc1ccc(F)c(C(F)(F)F)c1)[C@H](C)c1nc2ccccn2c(=O)c1-c1ccc(C#N)cc1`, half-maximal inhibition in data set [1] (IC50) was put at 41 nM.
`CCOc1ccc(-c2c([C@@H](C)N(CCS(=O)(=O)CC)C(=O)Cc3ccc(F)c(C(F)(F)F)c3)nc3ncccn23)cc1`: the IC50 came out at 1500 nM in data set [1], 4 nM at CXCR3 [2] and 70 nM at CXCR3 [3].
Take `CCS(=O)(=O)CCN(C(=O)Cc1ccc(F)c(C(F)(F)F)c1)[C@H](C)c1nc2ncccn2c1-c1ccc(O)cc1`: the IC50 on CXCR3 [2] and on CXCR3 [3] was 10000 nM in each case. The “Time Dependent CYP3A4 Inhibition” value in the data set on CYP3A4 [4] was “Yes”.
In the case of `CCS(=O)(=O)CCN(C(=O)Cc1ccc(F)c(C(F)(F)F)c1)[C@H](C)c1nc2ncccn2c1-c1ccc(C#N)cc1`, the IC50 is 83 nM in data set [1], 10 nM on CXCR3 [2] and 49 nM on CXCR3 [3].
The term MRT denotes a mean duration of stay, worked out from the concentration-time curve. Turning to `CCS(=O)(=O)CCN(C(=O)Cc1ccc(C(F)(F)F)c(F)c1)[C@H](C)c1nc2ncccn2c(=O)c1-c1ccc(C#N)cc1`, in the data set “Rat PK PO”, the MRT is 3.96 h and the bioavailability was 24%. In addition, the Vd in the data set “Rat PK (IV)” (read-out: Rat PK(IV) Vdss) turned out to be 0.31 L/kg.
For `CCS(=O)(=O)CCN(C(=O)Cc1ccc(F)c(C(F)(F)F)c1)[C@H](C)c1nc2ncccc2c(=O)n1-c1ccc(C#N)cc1` [drawing 192], half-maximal inhibition in data set [1] (IC50) was put at 120 nM. Moreover, the “Time Dependent CYP3A4 Inhibition” value in the data set on CYP3A4 [5] is recorded as “NO”.
In the case of `CCS(=O)(=O)CCN(C(=O)Cc1ccc(F)c(C(F)(F)F)c1)[C@H](C)c1nc2ncccc2c(=O)n1-c1ccc(C#N)cc1` [drawing 199], in the data set “Rat PK PO”, the MRT was 1.5 h and the bioavailability came out at 47.2%. For the same molecule, in “Rat PK (IV)” (read-out: Rat PK(IV) Cl (converted)), the clearance is 39.7 mL/min/kg.
